Columns and labels:
Experiment in all cases: relative viability (nuclei count vs DMSO), 5 days (fraction); higher = more cells survive
[1] = compound: Cn1cc(-c2cnn3c(N)c(Br)c([C@@H]4CCCNC4)nc23)cn1 + CS(=O)(=O)CCNCc1ccc(-c2ccc3ncnc(Nc4ccc(OCc5cccc(F)c5)c(Cl)c4)c3c2)o1 [Lapatinib] (partner 2 µM)
In short: (§1)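 Lung cancer cell lines in 1536-well plates got either a single drug or a fixed anchor-drug dose together with five library-drug doses (not always all listed) in √10 steps, by pin tool, on the day after seeding. Nuclei were counted after 5 days, and relative viability is the treated-to-vehicle ratio of nuclei counts. Values are medians of duplicate plates.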

[2] = compound: Cn1cc(-c2cnn3c(N)c(Br)c([C@@H]4CCCNC4)nc23)cn1 + Nc1ncn([C@H]2C[C@H](O)[C@@H](CO)O2)c(=O)n1 [Decitabine] (partner 2 µM)
In short: as §1

[3] = compound: Cn1cc(-c2cnn3c(N)c(Br)c([C@@H]4CCCNC4)nc23)cn1 + CCNC(=O)c1noc(-c2cc(C(C)C)c(O)cc2O)c1-c1ccc(CN2CCOCC2)cc1 [Luminespib] (partner 0.01 µM)
In short: as §1

[4] = compound: Cn1cc(-c2cnn3c(N)c(Br)c([C@@H]4CCCNC4)nc23)cn1 + O=C(c1cc(Cc2n[nH]c(=O)c3ccccc23)ccc1F)N1CCN(C(=O)C2CC2)CC1 [Olaparib] (partner 8 µM)
In short: as §1

Cell Line	relative viability ([1]; first compound 0.05 µM)	relative viability ([1]; first compound 0.1581 µM)	relative viability ([1]; first compound 0.5 µM)	relative viability ([1]; first compound 1.581 µM)	relative viability ([1]; first compound 5 µM)	relative viability ([2]; first compound 0.05 µM)	relative viability ([2]; first compound 0.1581 µM)	relative viability ([2]; first compound 0.5 µM)	relative viability ([2]; first compound 1.581 µM)	relative viability ([2]; first compound 5 µM)	relative viability ([3]; first compound 0.05 µM)	relative viability ([3]; first compound 0.1581 µM)	relative viability ([3]; first compound 0.5 µM)	relative viability ([3]; first compound 1.581 µM)	relative viability ([3]; first compound 5 µM)	relative viability ([4]; first compound 0.05 µM)	relative viability ([4]; first compound 0.1581 µM)	relative viability ([4]; first compound 0.5 µM)	relative viability ([4]; first compound 1.581 µM)	relative viability ([4]; first compound 5 µM)
201T	1	1.09	1.02	0.951	1.11	0.809	0.856	0.844	0.882	0.93	1.05	1.17	1.06	0.988	0.83	0.888	0.836	0.803	0.743	0.719
NCI-H838	0.955	1.15	0.964	0.667	0.775	0.483	0.574	0.545	0.51	0.309	0.346	0.252	0.261	0.225	0.222	0.79	0.911	0.797	0.611	0.648
SW 1573	1.14	1.22	1.15	1.01	1.1	0.567	0.498	0.455	0.462	0.517	0.211	0.288	0.21	0.185	0.146	0.476	0.562	0.44	0.401	0.457
PC-14	0.322	0.366	0.363	0.332	0.257	0.237	0.2	0.206	0.186	0.123	0.179		0.179	0.159	0.165	0.211	0.213	0.222	0.19	0.125
LK-2	1.01	0.878	0.823	0.757	0.605	0.323	0.337	0.254	0.272	0.23	0.213	0.206	0.182		0.169	0.664	0.648	0.771	0.568	0.373
COR-L23	0.966	1.26	1.03	0.471	0.445	0.407	0.489	0.481	0.354	0.248	0.775	0.745	0.366	0.24	0.119	0.38	0.302	0.3	0.249	0.168
NCI-H1944	0.823	0.832	0.761	0.605	0.577	0.439	0.468	0.448	0.482	0.356	0.705	0.671	0.706	0.635	0.344	0.408	0.448	0.374	0.378	0.349
NCI-H2405	1.06	1.17	1.01	0.993	0.85	0.747	0.819	0.776	0.71	0.713	0.717	0.858	0.705	0.73	0.439	0.875	0.954	0.901	0.857	0.659
SK-LU-1	0.871	0.585	0.758	0.321	0.19	0.788	0.586	0.537	0.363	0.255	0.184	0.207	0.233	0.186	0.165	0.515	0.308	0.31	0.246	0.226
EMC-BAC-2	0.843	0.987	0.961	0.852	0.889	0.976	1.02	0.981	0.827	0.887	1.25	1.37	1.12	0.879	1.08	0.492	0.521	0.47	0.383	0.475
NCI-H1650	0.854	0.882	0.711	0.64	0.428	0.445	0.478	0.373	0.445	0.3		0.146	0.241	0.194	0.186	0.625	0.82	0.851	0.616	0.444
NCI-H596	1.15	1.09	1.06	0.972	1	0.973	0.968	1.03	0.916	1.12	0.992	0.971	0.965	0.894	0.716	0.633	0.596	0.622	0.655	0.621
LCLC-97TM1	0.86	1.3	0.976	0.915	0.774	0.22	0.297	0.222	0.278	0.295	0.874	0.844	0.743	0.654	0.777	0.346	0.605	0.327	0.382	0.38
H3255	0.25	0.214	0.247	0.264	0.204	0.624	0.586	0.585	0.647	0.474	0.882	0.914	1.07	0.938	0.473	0.567	0.615	0.604	0.509	0.39
LXF-289	0.922	1.02	0.887	0.904	0.896	0.368	0.41	0.401	0.382	0.485	0.729	0.803	0.645	0.648	0.55	1.17	1.27	1.04	1.17	1.31
